Measured values taken from patent US20130109581A1, “POSITIVELY CHARGED SPECIES AS BINDING REAGENTS IN THE SEPARATION OF PROTEIN AGGREGATES FROM MONOMERS” (priority 2009, published 2013).
Values joined by “and” are separate entries in the source; they are usually repeats but may differ in a detail not shown here. Identical values can stand only once. “Also recorded” adds a separate entry of the source. Like-named read-outs stand apart in the source and are kept apart here. Where a SMILES comes first, the peptide text is derived from it. [ ]: non-standard residue; d: D form. Ahx = NCCCCCC(=O)O

Key:
[1] = target: T1, Aβ(1-42) aggregates (Homo sapiens, UniProt P05067); format: binding
T1 construct: For Aβ(1-42), 10 nL of 10% brain homogenate was added to each well; from tissue; host or cells: Alzheimer's disease patient brain homogenate

[2] = system: tau aggregates; format: binding, human
[3] = target: T2, normal CSF Aβ42 (Homo sapiens, UniProt P05067); test: NMPA with detergent washing: background from unspiked CSF, Abeta42; format: binding; conditions: for detection of normal CSF Aβ42 (background): 1% detergent wash after PSR1 pulldown, FIG. 35
T2 construct: reduced the detection of normal CSF Aβ42 to the background levels; from tissue; host or cells: pooled normal cerebrospinal fluid
Procedure: Second, two neutral detergents, polyethylene glycol sorbitan monolaurate (available as TWEEN 20 from Sigma-Aldrich, St. Louis, Mo.) and n-tetradecyl-N,N-dimethyl-3-ammonio-1-propanesulfonate (available as ZWITTERGENT 3-14 from EMI) Chemicals, Gibbstown, N.J.) were used to treat the globulomer-spiked CSF samples that had been contacted with PSR1 beads. For each assay, a mixture of 30 μl of PSR1 beads (coated at about 7-12 nmol PSR1 ligand/mg DYNAL beads, which were used in this example and in the following examples unless otherwise stated) and 70 μl of 1×TBSTT was immediately pipetted into each well on the pulldown plate. The liquid was removed on a magnetic separator. Fifty micro liters of 5×TBSTT was added to each well. The beads were suspended by briefly shaking at 750 rpm. Next […] of TBSTT or CSF sample without globulomer was added to each well. The pulldown plate was sealed and incubated at 37° C. for 1 hour with shaking at 500 rpm. After incubation, the beads were washed 8 times with TBST on the plate washer. After the plate wash, residual TBST buffer was removed from the beads on the magnetic separator. The beads were then incubated with 100 μl of either TBS, 1% Tween20 or 1% Zwittergent 3-14 for 30 minutes at room temperature at 750 rpm, (followed by an additional 8 washes with TBST on the plate washer. After removing residual TBST on the magnetic separator, 20 μl of denaturing solution, typically 0.1-0.15 N NaOH, was added to the beads. The plate was covered with an aluminum foil plate sealer and incubated at 80° C. for 30 minutes with shaking at 750 rpm. After incubation, the plate was cooled to room temperature and twenty micro liters of neutralizing solution, typically 0.12-0.18 M NaH2PO4+0.4% Tween20) was added into each well and the plate was incubated at room temperature for 5 minutes with shaking at 750 rpm. […] MSD Abeta Triplex Assay was preformed according to the manufacturer's instructions.
(§1) A summary of the assay results and calculated signal/noise is shown below in Table 17.

[4] = target: Abeta 42 globulomer (Homo sapiens, UniProt P05067); test: NMPA with detergent washing after PSR1 pulldown: globulomer detection; format: binding
[5] = target: T3, normal CSF Aβ40 (Homo sapiens, UniProt P05067); test: NMPA with detergent washing: background from CSF, Abeta40; format: binding; conditions: 1% detergent wash after PSR1 pulldown; FIG. 35
T3 construct: from tissue; host or cells: pooled cerebrospinal fluid (normal or AD)
Procedure: Second, two neutral detergents, polyethylene glycol sorbitan monolaurate (available as TWEEN 20 from Sigma-Aldrich, St. Louis, Mo.) and n-tetradecyl-N,N-dimethyl-3-ammonio-1-propanesulfonate (available as ZWITTERGENT 3-14 from EMI) Chemicals, Gibbstown, N.J.) were used to treat the globulomer-spiked CSF samples that had been contacted with PSR1 beads. For each assay, a mixture of 30 μl of PSR1 beads (coated at about 7-12 nmol PSR1 ligand/mg DYNAL beads, which were used in this example and in the following examples unless otherwise stated) and 70 μl of 1×TBSTT was immediately pipetted into each well on the pulldown plate. The liquid was removed on a magnetic separator. Fifty micro liters of 5×TBSTT was added to each well. The beads were suspended by briefly shaking at 750 rpm. Next […] of TBSTT or CSF sample without globulomer was added to each well. The pulldown plate was sealed and incubated at 37° C. for 1 hour with shaking at 500 rpm. After incubation, the beads were washed 8 times with TBST on the plate washer. After the plate wash, residual TBST buffer was removed from the beads on the magnetic separator. […]
as §1

[6] = target: T4, Aβ42 Globulomer (Homo sapiens, UniProt P05067); test: Misfolded Protein Assay, LoD and capture in CSF: globulomer; format: binding
T4 construct: beta amyloid (1-42) was monomerized with incubation in hexafluoroisopropanol
Procedure: (§2) The Ab42 aggregates were prepared as previously described: fibrils were prepared per Stine et al (JBC 2003, 278, p11612), globulomers were prepared per Barghorn et al (J Neurology 2005 95 p834), ADDLs were prepared per Lambert et al (PNAS 1998, 95 p6448), and ASPDs were prepared per Noguchi et al (JBC 2009 284 p32895). Normal CSF was pooled from clinically characterized non-demented patient CSF samples. AD CSF was pooled from clinically-characterized AD patient samples. Alzheimer's Disease Brain Homogenate (ADBH) was prepared by sonication of clinically diagnosed AD patient brain samples in 0.2M.sucrose (1:10 w/v).
(§3) For the capture assay (Misfolded Protein Assay), aliquots of the beads (30 ul) were added to wells of a 96 well plate, followed by 125 ul of sample in 80:20 CSF:TBSTT. The plate was sealed and incubated for 1 h at 37 C with shaking. The plate was washed with TBST and the residual buffer removed. A denaturing solution (0.1 N NaOH) was added to each well and the plate heated to 80 C. for 30 min with shaking. After cooling the plate to RT, a neutralizing buffer (0.12 M NaH2PO3-0.4% TW20,) was added and the plate shaken briefly at RT. The assay was analyzed using the triplex Mesoscale Discovery ELISA kit for Aβ. The Aβ in the samples eluted from the beads were detected per the manufacturer's protocol.
(§4) For the Limit of Detection (LoD) studies, serial dilutions of each aggregate were spiked into CSF and were assayed per the protocol described above. The LoD was defined as 2× over background levels.
(§5) This pattern minors the capture selectivity observed when these species are tested with 3 ul of PSR1 beads and 1 ng/mL of aggregate.

[7] = target: T5, Aβ40 aggregates in AD CSF (Homo sapiens, UniProt P05067); test: Discrimination between AD and normal CSF; format: binding; conditions: FIG. 39
T5 construct: from tissue; host or cells: pooled cerebrospinal fluid (normal or AD)
Procedure: as §2, §3
For discriminating between AD and normal CSF, pooled normal CSF or pooled Alzheimer's Disease patient CSF, were assayed per the protocol described above.

[8] = target: Aβ42 ADDL (Homo sapiens, UniProt P05067); test: Misfolded Protein Assay, LoD and capture in CSF: ADDL; format: binding
Procedure: as §2, §3, §4, §5

[9] = target: T6, Aβ42 ASPD (Homo sapiens, UniProt P05067); test: Misfolded Protein Assay, LoD and capture in CSF: ASPD; format: binding
T6 construct: The Ab42 aggregates were prepared as previously described
Procedure: as §2, §3, §4, §5

[10] = target: T7, Aβ42 Fibrils (Homo sapiens, UniProt P05067); test: Misfolded Protein Assay, LoD and capture in CSF: fibrils; format: binding
T7 construct: The Ab42 aggregates were prepared as previously described
Procedure: as §2, §3, §4, §5

[11] = system: Alzheimer's Disease Brain Homogenate (ADBH) Aβ aggregates; test: Misfolded Protein Assay, LoD in CSF: ADBH; format: binding, human; conditions: spiked into CSF; LoD = 2× over background
Procedure: as §2
as §3, with “protocol. […]” for “protocol.”

[12] = target: T8, Abeta 1-42 globulomer (Homo sapiens, UniProt P05067); test: Globulomer capture assay in CSF (Example 6); format: binding; conditions: 4 ng/mL globulomer spiked; FIG. 29
T8 construct: beta amyloid (1-42) was monomerized with incubation in hexafluoroisopropanol

[13] = target: T8, Abeta 1-42 globulomer; test: Globulomer capture assay in CSF (Example 6); format: binding; conditions: Abeta42 globulomer spiked into CSF; reagents on beads
Procedure: A series of new potential aggregate-specific binding reagents were designed as shown below and conjugated onto magnetic Dynal M270 beads as described in Example 2. Typically 7-12 nmol of ligand (each candidate aggregate-specific binding reagent) was coated onto 1 mg of beads.
Aliquots of the beads (typically 3 ul) were added to wells of a 96 well plate, followed by sample (with or without Abeta 1-42 globulomer (an Abeta42 oligomer model) spiked in 80:20 CSF:TBSTT, typically 125 ul). The plate was sealed and incubated for 1 hour at 37° C. with shaking. The plate was washed with aqueous solutions of detergent (typically polyethylene glycol sorbitan monolaurate and n-tetradecyl-N,N-dimethyl-3-ammonio-1-propanesulfonate) to remove ubound material and the residual buffer removed. A denaturing solution (typically 0.1-0.15 N NaOH) was added to each well and the plate heated to 80° C. for 30 min with shaking. After cooling the plate to room temperature, a neutralizing buffer (typically 0.12-0.18 M NaH2PO3 in 0.4% TWEEN20,) was added and the plate was shaken briefly at room temperature. The bead eluate was analyzed using either an Aβ42-specific ELISA or the MSD® 96-Well MULTI-SPOT® Human/Rodent [4G8] Abeta Triplex Ultra-Sensitive Assay from Meso Scale Discovery (Gaithersburg, Md.). For the Aβ42-specific assay, the samples were eluted from the beads and a detection antibody (4G8 HRP) was added to a plate bearing the Aβ42-specific antibody 12F4. The plate was incubated for 1 hour, washed, the substrate was added (SuperSignal West Femto Maximum Sensitivity Substrate from Thermo Fisher, Rockville, Md.), and the luminescence was measured. The MSD plate assay was performed in a similar fashion, according to the manufacturer's protocol.
In this experiment the preferred number of charges within a given scaffold was identified. An Ala/Lys peptide framework was utilized, where the inclusion of each Lys residue increases the peptides' net charge by +1. Six hexapeptides with increasing charge (+1→+6), AAAKAA, AAKKAA, AAKKKA, AKKKKA, AKKKKK, and KKKKKK, were prepared and conjugated on the beads. The ability of these beads to capture Abeta 1-42 globulomer spiked at 1 ng/mL into CSF was tested, and the result is shown in FIG. 25. The globulomer capture level (“42 1 ng/ml” or the closed bars) was compared to the background signal of Abeta 1-42 detected in the unspiked CSF (“42 0 ng/ml”) and the background signal of Abeta 1-40 detected in unspiked CSF (“40 0 ng/ml”) or CSF spiked with AB42 oligomers “40 1 ng/ml”. The charge density, as conjugated to the magnetic beads, of each reagent evaluated in this experiment is shown below in Table 8.

[14] = CSF, PSR1 beads treated with detergent post capture
[15] = pulldown CSF, PSR1 beads washed with 1% detergent
[16] = 3 ul of beads and 1 ng/mL of aggregate
[17] = spiked into CSF, LoD = 2× over background

## Nab-Nab-Nab-Nab-Nab-Nab-Nab [+++++++]
[1]
  limit of detection for Aβ(1-42) capture: 1.6 mL/assay and 2.5 mL/assay
[2]
  total Tau signal, AD vs normal brain homogenate: higher signals in the AD samples relative to the normal brain homogenates

## n-Tetradecyl-N,N-dimethyl-3-ammonio-1-propanesulfonate [ZW3-14]
[3]
  detection of normal CSF Aβ42 (background): reduced the detection of normal CSF Aβ42 to the background levels observed when PSR1 is incubated with TBSTT buffer alone
[3]; [14]
  Abeta 42 RLU, 0 ng/mL Abeta 42 globulomer, Average: 110.0 RLU
[4]
  signal/noise of globulomer detection: improved the signal/noise of globulomer detection; also recorded: improved the signal/noise ratio for Abeta 42 globulomer detection more significantly
[4]; 0.5 ng/mL vs 0 ng/mL globulomer
  S/N Abeta 42 globulomer-spiked/unspiked: 7.7
[4]; Abeta 42 RLU at 0.5 ng/mL over average Abeta 40 RLU
  S/N Abeta 42 globulomer-spiked/Abeta 40: 2.2
[4]; [14]
  Abeta 42 RLU, 0.5 ng/mL Abeta 42 globulomer, Average: 842.0 RLU
[4]; [15]
  LoD of globulomer (Cal): 2.33 pg/mL
  LoD of globulomer, RLU (S/N = 2): 199 RLU
  S/N at 25.3 pg/mL globulomer: 10.3
[5]
  detection of normal CSF Aβ40 (background): reduced the detection of normal CSF Aβ40 significantly

## CC(=O)NC(Cc1ccccc1)C(=O)NC(CCCCN)C(=O)NC(Cc1ccccc1)C(=O)NC(CCCCN)C(=O)NC(CCCCN)C(=O)NC(CCCCN)C(=O)NCCCCCC(=O)NCCCCCC(=O)NC(CS)C(N)=O (stereo not drawn) [Ac-FKFKKK, Ac-FKFKKK-Ahx-Ahx-Cys-NH2] (Ac-FKFKKK[Ahx][Ahx]C-NH2; configuration not given here)
[6]; [16]
  capture of Globulomer: 3409
[6]; [17]
  LoD: 75 to 120 pg/mL
[7]
  Aβ40 signal in pooled AD CSF relative to normal pool: higher Aβ40 signal in positive pooled AD CSF relative to unmatched normal pool; also recorded: largest change in signal
[8]; [16]
  capture of ADDL: 1241
[8]; [17]
  LoD: 300 pg/mL
[9]; [16]
  capture of ASPD: 1321
[9]; [17]
  LoD: 300 pg/mL
[10]; [16]
  capture of Fibril: 4138
[10]; [17]
  LoD: 100 pg/mL
[11]
  LoD: <10 pg/mL

## FKFKKK
[12]
  globulomer capture: improved globulomer capture relative to nonaromatic residues
[13]
  globulomer capture: captured globulomers specifically

## AKFKKK
[12]
  globulomer capture: improved globulomer capture relative to nonaromatic residues

## Polyethylene glycol sorbitan monolaurate [TW20]
[3]
  detection of normal CSF Aβ42 (background): reduced the detection of normal CSF Aβ42 to the background levels observed when PSR1 is incubated with TBSTT buffer alone
[4]
  LoD of globulomer (Cal): 2.52 pg/mL
  LoD of globulomer, RLU (S/N = 2): 211 RLU
  S/N at 25.3 pg/mL globulomer: 11.0
  signal/noise of globulomer detection: improved the signal/noise of globulomer detection
[5]
  detection of normal CSF Aβ40 (background): reduced the detection of normal CSF Aβ40 significantly
